# Reference: patent publication US20250177329A1, “GPR120 AGONISTS FOR THE TREATMENT OF INFLAMMATORY BOWEL DISEASE” (Dompe' Farmaceutici SPA, priority 2022, published 2025)
# What was measured:
# [1] = Plasma pharmacokinetics after single oral administration to mice; type: in vivo; conditions: male, CD1, mouse, single oral dose (Dose_PO: 10.0-90.0 mg/kg)
# Text: The purpose of this study was to evaluate plasma and tissue exposure of the following compounds after a single oral administration to mice: • 7-(3-(N-(4-fluoro-2,6-dimethylphenyl)sulfamoyl)phenyl)heptanoic acid (indicated below as DFL23806), • 7-(3-(N-(4-chloro-2,6-dimethylphenyl)sulfamoyl)phenyl)heptanoic acid (indicated below as DFL23914) • 7-(3-(N-(2,6-dimethyl-4-(trifluoromethyl)phenyl)sulfamoyl)phenyl)heptanoic acid (indicated below as DFL23922) • 7-(3-(N-(6-fluoro-4-methyl-[1,1′-biphenyl]-3-yl)sulfamoyl)phenyl)heptanoic acid (indicated below as DFL23916) • 7-(3-(N-(5-fluoro-3-methyl-[1,1′-biphenyl]-2-yl)sulfamoyl)phenyl)heptanoic acid (indicated below as DFL23917) • 7-(3-{[4-fluoro-2-methyl-5-(thiophen-2-yl)phenyl]sulfamoyl}phenyl)heptanoic acid (indicated below as DFL24102) […]
# A retro-orbital, composite blood sampling at pre-dose or after dosing at 30 min, 1, 2, 6, 8 and 24 hours (three mice/time point) was carried out for the plasma pharmacokinetic assessment. Blood samples were collected in heparinized collection tubes. Samples were taken immediately onto ice and kept cool until centrifugation (10000 g for 3 minutes at about +4° C.). About 50 μL of plasma were stored in a freezer at −80° C. pending analysis.
# After samples collection, bioanalysis for concentrations of the test compounds were done using HPLC-MS/MS methods and pharmacokinetic analysis of the compounds in plasma and tissues was performed according to standard non-compartmental approach using Watson system (v 7.6, Thermo Fisher Scientific Waltham, MA, USA) on mean concentration data.
# DSS-induced colitis = assay: Mouse model of Dextran Sodium Sulfate-induced colitis; type: in vivo, female C57/B16 mice; conditions: day 39
# Text: A mouse model of colitis induced by administration of Dextran Sodium Sulfate (DSS) (Wirtz S. et al. Nature Protocols; Volume: 2, Issue: 3 Pages: 541-546; 2007) was used to study the therapeutic effect of oral administration of DFL23806 on colitis.
# In details, 8- to 12-week-old female C57/B16 mice were subjected to 3 oral cycles of 2.5% Dextran Sodium Sulfate (DSS) in drinking water (molecular mass, 40 kDa; MP Biomedicals), each cycle characterized by 7 days of DSS administration followed by 7 days of filter-purified water.
# From day 3 of DSS administration, the mice were divided in 4 experimental groups, each receiving the treatment specified below: • Group 1: DSS (n=8)
# No treatment, used as negative control. • Group 2: DSS+Vehicle (n=8)
# Treated with 20% v/v Dimethyl Sulfoxide (DMSO) and 80% v/v Phosphate Buffered Saline (PBS), 0.1 M, pH 8 (Vehicle), used as a negative control. • Group 3: DSS+DFL 90 mg/kg (n=8)
# Treated with DFL23806 dissolved in Vehicle, at the dosage of 90 mg/kg once a day. • Group 4: DSS+5-ASA 60 mg/kg (n=8)
# Treated with 5-aminosalicylic acid (5-ASA) in Vehicle, at the dosage of 60 mg/Kg once a day, used as reference positive control.
# Vehicle, DFL23806 and 5-ASA were administered daily, in the morning, by oral gavage, using plastic sterile feeding tubes 20 ga×30 mm. All mice were sacrificed on day 39.
# A DAI score was established based on a scale that considers different parameters characterizing experimental colitis induction and progression (R S Walmsley et al. Gut 1998; 43:29-32).
# Body weight, presence of gross blood in the feces, and stool consistency were recorded every 2 days. In details, the DAI was determined at each time point by scoring changes in weight loss (0=none, 1=1%-5%, 2=5%-10%, 3=10%-20%, 4=>20%); stool consistency (0=normal, 2=loose, 4=diarrhea); and rectal bleeding (0=normal, 2=occult bleeding, 4=gross bleeding).
# Mice were sacrificed at day 39, colon were collected and colon lengths measured for each mouse, as additional parameter of intestinal inflammation.
# The day of sacrifice (day 39), mice were anesthetized with 2% isoflurane and subjected to endoscopy, to confirm the inflammatory grade. The experimental endoscopy setup, denoted “Coloview system”, consisted of a miniature endoscope (scope 1.9 mm outer diameter), a xenon light source, a triple chip camera, and an air pump (all from Karl Storz, Tuttlingen, Germany) to achieve regulated inflation of the mouse colon. The endoscopic procedure was viewed on a colour monitor and a modified murine endoscopic index score of colitis severity was assigned on the basis of colon translucency (0-3 points), granular features of the mucosa (0-3 points), morphology of the vascular pattern (0-4 points), and the presence of fibrin (0-4 points), as previously described by Dr. D'Alessio (D'Alessio, S. et al. J. Clin. Invest. 124, 3863-3878; 2014) leading to a cumulative score between 0 (no signs of inflammation) and […] (endoscopic signs of very severe inflammation).
# Histological analysis has been performed by an expert pathologist, in a blinded fashion, to grade the intestinal inflammation. More in details, colons of colitic mice in the various experimental groups have been evaluated for histological analyses using […] paraffin-embedded sections, stained with hematoxylin (Dako) and eosin (Diapath). A blinded pathologist evaluated the degree of inflammatory cell infiltration and mucosal damage, using the RACHMILEWITZ score (Table 1) (Rachmilewitz, D. et al. Gastroenterology 122, 1428-1441; 2002).
# GPR40 = molecular target: T1, GPR40 (Mus musculus, UniProt Q76JU9); assay: Co-immunoprecipitation of β-arrestin 2 with GPR40 in colon lysates of DSS mice; type: in vivo; conditions: pooled colon lysates, day 39; compared to DSS or DSS+vehicle
# T1 construct: Colon lysates (˜900 μg proteins) from 6 mice of each experimental group were pooled; from tissue; host or cells: mouse colon (DSS colitis model)
# T1 sequence (Q76JU9 whole entry): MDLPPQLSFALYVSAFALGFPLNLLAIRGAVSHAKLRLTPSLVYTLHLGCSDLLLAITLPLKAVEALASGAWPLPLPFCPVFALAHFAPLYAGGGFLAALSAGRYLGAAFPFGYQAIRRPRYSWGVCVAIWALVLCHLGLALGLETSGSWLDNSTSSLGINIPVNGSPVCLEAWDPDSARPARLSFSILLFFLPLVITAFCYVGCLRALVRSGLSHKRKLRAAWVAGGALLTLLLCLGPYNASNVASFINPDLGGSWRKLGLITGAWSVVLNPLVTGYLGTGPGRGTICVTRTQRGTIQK
# Protocol: The efficiency of DFL in activating the GPR120 and/or GPR40 receptors was tested.
# Agonist-induced GPR120 can engage multiple signalling pathways to regulate distinct physiological outcomes. After ligand binding, B-arrestins, such as B-arrestin 2 can associate with the cytoplasmic domains of GPR120 and couple the receptor to specific downstream signaling pathways (FIG. 9). For this reason, we verified the agonist efficiency in activating GPR120 and GPR40 by immunoprecipitation. Colon lysates (˜900 μg proteins) from 6 mice of each experimental group were pooled, precleared with protein A/G plus-agarose (Santa Cruz) and then incubated with the antibody used for immunoprecipitation (anti-GPR120 or anti-GPR40, Abcam) at 4° C. for 16 h, followed by incubation with protein A/G plus-agarose for 5 h. The agarose beads were then collected by centrifugation, washed four times with lysis buffer, and heated to 95° C. for 5 min after adding Laemmli buffer. The resulting immunoprecipitates were separated by SDS-PAGE and probed with the anti-β-arrestin 2 antibody (Santa Cruz).
# Upon western blotting, a densitometric analysis of the blots was performed using Image J. FIGS. 10 and 11 show the ratio between co-immunoprecipitated β-arrestin 2 and GPR120 (FIG. 10) or GPR40 levels (FIG. 11) and the results of the blotting.
# [2] = colon, DFL 90 mg/kg, 5-ASA 60 mg/kg, compared with DSS+Vehicle
# [3] = DFL23806 90 mg/kg, 5-ASA 60 mg/kg oral once a day, compared to DSS and DSS+Vehicle
Structure (SMILES),AUC(0-inf) [1],AUC(0-t) [1],Cmax [1],Tmax [1],half-life [1],histological score (Rachmilewitz) for extent of flogosis (DSS-induced colitis; [2]),histological score (Rachmilewitz) for extent of ulceration (DSS-induced colitis; [2]),histological score (Rachmilewitz) for flogosis (DSS-induced colitis; [2]),histological score (Rachmilewitz) for ulceration (DSS-induced colitis; [2]),composite endoscopic score (DSS-induced colitis; [3]),endoscopic score: colon thickness (DSS-induced colitis; [3]),endoscopic score: mucosal surface granularity (DSS-induced colitis; [3]),endoscopic score: vascular pattern (DSS-induced colitis; [3]),endoscopic score: visible fibrin (DSS-induced colitis; [3]),"colon length (DSS-induced colitis; DFL23806 90 mg/kg, 5-ASA 60 mg/kg oral once a day, compared to DSS+vehicle)",GPR40 and β-arrestin 2 association (ratio co-immunoprecipitated β-arrestin 2 / GPR40) (GPR40)
"Cc1cc(C(F)(F)F)cc(C)c1NS(=O)(=O)c1cccc(CCCCCCC(=O)O)c1 [DFL23922, 7-(3-(N-(2,6-dimethyl-4-(trifluoromethyl)phenyl)sulfamoyl)phenyl)heptanoic acid]",217 ng·h/mL,201 ng·h/mL,123 ng/mL,1.4 h,1.5 h,,,,,,,,,,,
"Cc1cc(Cl)cc(C)c1NS(=O)(=O)c1cccc(CCCCCCC(=O)O)c1 [DFL23914, 7-(3-(N-(4-chloro-2,6-dimethylphenyl)sulfamoyl)phenyl)heptanoic acid]",230 ng·h/mL,189 ng·h/mL,45 ng/mL,2 h,1.2 h,,,,,,,,,,,
"Nc1ccc(O)c(C(=O)O)c1 [5-ASA, 5-aminosalicylic acid, reference compound]",,,,,,significantly reduced the histological score,significantly reduced the histological score,significantly reduced the histological score,significantly reduced the histological score,significantly inhibit chronic experimental colitis,significantly inhibit chronic experimental colitis,significantly inhibit chronic experimental colitis,significantly inhibit chronic experimental colitis,significantly inhibit chronic experimental colitis,significant inhibitory effect,no increase
"Cc1cc(F)c(-c2cccs2)cc1NS(=O)(=O)c1cccc(CCCCCCC(=O)O)c1 [DFL24102, 7-(3-{[4-fluoro-2-methyl-5-(thiophen-2-yl)phenyl]sulfamoyl}phenyl)heptanoic acid]",302 ng·h/mL,278 ng·h/mL,113 ng/mL,1 h,1.9 h,,,,,,,,,,,
"Cc1cc(F)cc(-c2ccccc2)c1NS(=O)(=O)c1cccc(CCCCCCC(=O)O)c1 [DFL23917, 7-(3-(N-(5-fluoro-3-methyl-[1,1′-biphenyl]-2-yl)sulfamoyl)phenyl)heptanoic acid]",402 ng·h/mL,378 ng·h/mL,135 ng/mL,0.5 h,1.3 h,,,,,,,,,,,
"Cc1cc(F)c(-c2ccccc2)cc1NS(=O)(=O)c1cccc(CCCCCCC(=O)O)c1 [DFL23916, 7-(3-(N-(6-fluoro-4-methyl-[1,1′-biphenyl]-3-yl)sulfamoyl)phenyl)heptanoic acid]",571 ng·h/mL,480 ng·h/mL,198 ng/mL,0.4 h,2.2 h,,,,,,,,,,,
